In ChEMBL document CHEMBL1201862, “PubChem BioAssay data set” (2004):
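Five compound concentrations were applied to cells in 96-well plates for 48 hours; endpoints were derived by simple linear interpolation of the resulting dose-response curve. At the GI50, growth is halved.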 The source made the active and inactive calls. Rule as the data show it: active = GI50 up to about 1.1 µM and inactive = higher.

Legend:
Assay in all cases: DTP human tumour cell line panel, 48 h
LXFL 529 = system: LXFL 529
MOLT-4 = system: MOLT-4
HL-60 = system: HL-60
SK-MEL-5 = system: SK-MEL-5
SN12C = system: SN12C
NCI-H226 = system: NCI-H226
Malme-3M = system: Malme-3M
CAKI-1 = system: CAKI-1
XF498 = system: XF498
SNB-75 = system: SNB-75
DMS-114 = system: DMS-114
OVCAR-5 = system: OVCAR-5
NCI-H460 = system: NCI-H460
M14 = system: M14
SF-295 = system: SF-295
SK-MEL-2 = system: SK-MEL-2
786-0 = system: 786-0
KM12 = system: KM12
OVCAR-8 = system: OVCAR-8
OVCAR-3 = system: OVCAR-3
COLO 205 = system: COLO 205
SR = system: SR
DMS-273 = system: DMS-273
HOP-18 = system: HOP-18
TK-10 = system: TK-10
NCI-H522 = system: NCI-H522
NCI-H23 = system: NCI-H23
EKVX = system: EKVX
SNB-78 = system: SNB-78
M19-MEL = system: M19-MEL
SW-620 = system: SW-620
OVCAR-4 = system: OVCAR-4
U-251 = system: U-251
KM-20L2 = system: KM-20L2
K562 = system: K562
HCT-15 = system: HCT-15
SF-539 = system: SF-539
RXF 393 = system: RXF 393
UACC-257 = system: UACC-257
RPMI-8226 = system: RPMI-8226
CCRF-CEM = system: CCRF-CEM
HOP-92 = system: HOP-92
UACC-62 = system: UACC-62
DLD-1 = system: DLD-1
A549 = system: A549
HT-29 = system: HT-29
SK-OV-3 = system: SK-OV-3
SNB-19 = system: SNB-19
HCC 2998 = system: HCC 2998
SK-MEL-28 = system: SK-MEL-28
HCT-116 = system: HCT-116
A498 = system: A498
IGROV-1 = system: IGROV-1
SF-268 = system: SF-268
ACHN = system: ACHN
UO-31 = system: UO-31
HOP-62 = system: HOP-62

Cc1cccc(C)c1NC(=O)CCC(=O)CC(=O)C(C)C
GI50 (LXFL 529): > 100 µM (inactive) | GI50 (MOLT-4): > 100 µM (inactive) | GI50 (HL-60): > 100 µM (inactive) | GI50 (SK-MEL-5): > 100 µM (inactive) | GI50 (SN12C): > 100 µM (inactive) | GI50 (NCI-H226): > 100 µM (inactive) | GI50 (Malme-3M): > 100 µM (inactive) | GI50 (CAKI-1): > 100 µM (inactive) | GI50 (XF498): > 100 µM (inactive) | GI50 (SNB-75): > 100 µM (inactive) | GI50 (DMS-114): > 100 µM (inactive) | GI50 (OVCAR-5): > 100 µM (inactive) | GI50 (NCI-H460): > 100 µM (inactive) | GI50 (M14): > 100 µM (inactive) | GI50 (SF-295): > 100 µM (inactive) | GI50 (SK-MEL-2): > 100 µM (inactive) | GI50 (786-0): > 100 µM (inactive) | GI50 (KM12): > 100 µM (inactive) | GI50 (OVCAR-8): > 100 µM (inactive) | GI50 (OVCAR-3): > 100 µM (inactive) | GI50 (COLO 205): > 100 µM (inactive) | GI50 (SR): > 100 µM (inactive) | GI50 (DMS-273): > 100 µM (inactive) | GI50 (HOP-18): > 100 µM (inactive) | GI50 (TK-10): > 100 µM (inactive) | GI50 (NCI-H522): > 100 µM (inactive) | GI50 (NCI-H23): > 100 µM (inactive) | GI50 (EKVX): > 100 µM (inactive) | GI50 (SNB-78): > 100 µM (inactive) | GI50 (M19-MEL): > 100 µM (inactive) | GI50 (SW-620): > 100 µM (inactive) | GI50 (OVCAR-4): > 100 µM (inactive) | GI50 (U-251): > 100 µM (inactive) | GI50 (KM-20L2): > 100 µM (inactive) | GI50 (K562): > 100 µM (inactive) | GI50 (HCT-15): > 100 µM | GI50 (SF-539): > 100 µM (inactive) | GI50 (RXF 393): > 100 µM (inactive) | GI50 (UACC-257): > 100 µM (inactive) | GI50 (RPMI-8226): > 100 µM (inactive) | GI50 (CCRF-CEM): > 100 µM (inactive) | GI50 (HOP-92): > 100 µM (inactive) | GI50 (UACC-62): > 100 µM (inactive) | GI50 (DLD-1): > 100 µM (inactive) | GI50 (A549): > 100 µM (inactive) | GI50 (HT-29): > 100 µM (inactive) | GI50 (SK-OV-3): > 100 µM (inactive) | GI50 (SNB-19): > 100 µM (inactive) | GI50 (HCC 2998): > 100 µM (inactive) | GI50 (SK-MEL-28): > 100 µM (inactive) | GI50 (HCT-116): > 100 µM (inactive) | GI50 (A498): > 100 µM (inactive) | GI50 (IGROV-1): > 100 µM (inactive) | GI50 (SF-268): > 100 µM (inactive) | GI50 (ACHN): > 100 µM (inactive) | GI50 (UO-31): > 100 µM (inactive) | GI50 (HOP-62): > 100 µM (inactive)
